Assay results as given in ChEMBL document CHEMBL1148225, “Discovery and SAR of trisubstituted thiazolidinones as CCR4 antagonists” (Bioorg Med Chem Lett, 2004).

Columns and labels:
[1] = molecular target: T1, C-C chemokine receptor type 4 (Homo sapiens, UniProt P51679); test: Inhibition of [125I]MDC binding to recombinant human C-C chemokine receptor type 4 (CCR4) expressed in murine pre-B cells; format: cell-based
T1 sequence (P51679 whole entry): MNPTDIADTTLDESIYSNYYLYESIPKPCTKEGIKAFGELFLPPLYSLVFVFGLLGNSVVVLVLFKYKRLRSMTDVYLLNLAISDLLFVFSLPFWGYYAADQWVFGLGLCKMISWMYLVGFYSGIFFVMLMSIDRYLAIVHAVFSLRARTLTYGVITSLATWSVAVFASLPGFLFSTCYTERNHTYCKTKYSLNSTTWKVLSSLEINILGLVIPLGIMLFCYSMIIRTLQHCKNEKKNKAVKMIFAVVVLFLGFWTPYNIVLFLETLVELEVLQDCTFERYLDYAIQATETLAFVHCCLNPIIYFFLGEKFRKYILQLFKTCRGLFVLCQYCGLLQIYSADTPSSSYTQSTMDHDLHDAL

[2] = molecular target: T2, C-C chemokine receptor type 4 (Homo sapiens) (UniProt P51679); test: Dose required to inhibit TARC-stimulated chemotaxis in CCR4+ Th2 cell lines derived from primary human T-cells; format: functional, cell-based
T2 sequence (whole entry): T1 sequence (P51679 whole entry)

[3] = molecular target: T1, C-C chemokine receptor type 4; test: Inhibitory activity against [125I]MDC binding to human Chemokine receptor type 4 expressed in murine pre-B cells; format: cell-based

Row | SMILES | IC50 [1] [µM] | other results
1 | C[C@@H](NC(=O)C[C@H]1S[C@H](c2ccc(Cl)cc2Cl)N(CC(=O)NCCCN2CCCCC2)C1=O)c1cccc2ccccc12 | 0.11 | ED50 [2]: 0.3 µM
2 | O=C(C[C@H]1S[C@H](c2ccc(Cl)cc2Cl)N(CC(=O)NCCCN2CCOCC2)C1=O)NCc1cccc(C(F)(F)F)c1 | 1 | –
3 | CN(C)CCCN1C(=O)[C@@H](CC(=O)NCc2cccc3ccccc23)S[C@@H]1c1ccc(Cl)cc1Cl | 5.6 | –
4 | O=C(C[C@H]1S[C@H](c2ccc(Cl)cc2Cl)N(CC(=O)NCCCN2CCOCC2)C1=O)NCCc1ccc(Cl)c(Cl)c1 | 13 | –
5 | O=C(C[C@H]1S[C@H](c2ccc(Cl)cc2Cl)N(CCCCN2CCOCC2)C1=O)NCc1cccc2ccccc12 | 18 | –
6 | O=C(C[C@H]1S[C@H](c2ccc(C(F)(F)F)cc2C(F)(F)F)N(CC(=O)NCCCN2CCOCC2)C1=O)NCc1cccc2ccccc12 | – | IC50 [3]: > 100 µM
7 | O=C(C[C@H]1S[C@H](c2ccc(Cl)cc2Cl)N(Cc2cccc(CN3CCOCC3)c2)C1=O)NCc1cccc2ccccc12 | 100 | –
8 | O=C(CN1C(=O)[C@@H](CC(=O)N[C@@H]2CCc3ccccc32)S[C@@H]1c1ccc(Cl)cc1Cl)NCCCN1CCOCC1 | 2.9 | –
9 | O=C(C[C@H]1S[C@H](c2cc(Cl)cc(Cl)c2)N(CC(=O)NCCCN2CCOCC2)C1=O)NCc1cccc2ccccc12 | 9 | –
10 | O=C(C[C@H]1S[C@H](c2cccc(C(F)(F)F)c2)N(CC(=O)NCCCN2CCOCC2)C1=O)NCc1cccc2ccccc12 | 12 | –
11 | O=C(C[C@H]1S[C@H](c2ccc(Cl)cc2Cl)N(CC(=O)NCCCN2CCOCC2)C1=O)NCc1ccc(-c2ccccc2)cc1 | 2.5 | –
12 | CN(C)CCN1C(=O)[C@@H](CC(=O)NCc2cccc3ccccc23)S[C@@H]1c1ccc(Cl)cc1Cl | 36 | –
13 | O=C(C[C@H]1S[C@H](c2ccc(Cl)cc2Cl)N(CC(=O)NCCCN2CCOCC2)C1=O)NCc1cccs1 | 11 | –
14 | O=C(CN1C(=O)[C@@H](CC(=O)Nc2nccs2)S[C@@H]1c1ccc(Cl)cc1Cl)NCCCN1CCOCC1 | 11 | –
15 | O=C(C[C@H]1S[C@H](c2ccc(Cl)cc2Cl)N(CC(=O)NCCCN2CCOCC2)C1=O)NCc1ccc(Cl)cc1Cl (stereo in doubt; 72) | 3 | –
16 | O=C(C[C@H]1S[C@H](c2ccc(Cl)cc2Cl)N(CC(=O)NCCN2CCOCC2)C1=O)NCc1cccc2ccccc12 | 3.5 | –
17 | Cc1c(Cl)cccc1CNC(=O)C[C@H]1S[C@H](c2ccc(Cl)cc2Cl)N(CC(=O)NCCCN2CCCCC2)C1=O | 0.14 | –
18 | C[C@H](NC(=O)C[C@H]1S[C@H](c2ccc(Cl)cc2Cl)N(CC(=O)NCCCN2CCOCC2)C1=O)c1cccc2ccccc12 | 8 | –

Continued, in another order:

Row | IC50 [1] [µM] | SMILES | other results
19 | 1 | O=C(C[C@H]1S[C@H](c2ccc(F)cc2Cl)N(CC(=O)NCCCN2CCOCC2)C1=O)NCc1cccc2ccccc12 | –
20 | 0.6 | O=C(C[C@H]1S[C@H](c2ccc(Cl)cc2Cl)N(CC(=O)N2CCC(N3CCCC3)CC2)C1=O)NCc1cccc2ccccc12 | –
21 | 1.3 | O=C(C[C@H]1S[C@H](c2ccc(Cl)cc2Cl)N(CC(=O)NCCCN2CCOCC2)C1=O)NCc1cccc(-c2ccccc2)c1 | –
22 | 2.5 | O=C(C[C@H]1S[C@H](c2ccc(Cl)cc2Cl)N(CC(=O)NCCCN2CCOCC2)C1=O)NCc1cccc(C(F)(F)F)c1F | –
23 | > 25 | O=C(C[C@H]1S[C@H](c2ccc(Cl)c(Cl)c2)N(CC(=O)NCCCN2CCOCC2)C1=O)NCc1cccc2ccccc12 | –
24 | 0.31 | O=C(C[C@H]1S[C@H](c2ccc(Cl)cc2Cl)N(CC(=O)NCCCN2CCCC2)C1=O)NCc1cccc2ccccc12 | –
25 | 19 | CC(C)CCNC(=O)C[C@H]1S[C@H](c2ccc(Cl)cc2Cl)N(CC(=O)NCCCN2CCOCC2)C1=O | –
26 | 8 | C[C@@H](NC(=O)C[C@H]1S[C@H](c2ccc(Cl)cc2Cl)N(CC(=O)NCCCN2CCOCC2)C1=O)c1ccccc1 (stereo in doubt) | –
27 | 0.2 | O=C(C[C@H]1S[C@H](c2ccc(Cl)cc2Cl)N(CC(=O)NCCCN2CCCCC2)C1=O)NCc1cccc2ccccc12 | –
28 | 18 | O=C(C[C@H]1S[C@H](c2cccc(Cl)c2Cl)N(CC(=O)NCCCN2CCOCC2)C1=O)NCc1cccc2ccccc12 | –
29 | 0.83 | O=C(C[C@H]1S[C@H](c2ccc(Cl)cc2)N(CC(=O)NCCCN2CCOCC2)C1=O)NCc1cccc2ccccc12 | –
